In patent US10329282B2, “Rho-associated protein kinase inhibitor, pharmaceutical composition comprising the same, as well as preparation method and use thereof” (Beijing Tide Pharmaceutical Co., Ltd., priority 2017, dated 2019):
pIC50: −log10 of the molar value.

Molecular target: ROCK2 (Homo sapiens (Human), UniProt O75116)
Assay: ROCK2 kinase IC50 assay (CISBIO HTRF KinEASE-STK S2 kit)
Type: biochemical
Details: ROCK2 from Carna Biosciences, 2 h incubation at room temperature
Protocol: The kinase IC50 was determined by a commercialized CISBIO kinase detection kit, HTRF KinEASE-STK S2 kit (62ST2PEC). ROCK2 (01-119) employed in the reaction was purchased from Carna Biosciences.
Before the assay, the following working solutions as needed were formulated with corresponding reagents according to the instruction of the kinase detection kit: 1×kinase buffer, 5×STK-52 substrate working solution (1.5 μM) and 5×ATP working solution (1.5 μM), 5×ROCK2 kinase working solution, 4×Streptavidin-XL665 working solution, and 4×STK-Ab-Cryptate 2 detection solution. Then the assay was performed according to the following procedure.
A solution of a compound at a concentration of 10000 nM was prepared with the 1×kinase buffer containing 2.5% DMSO. Gradient dilution of the solution of the compound was performed with the kinase buffer containing DMSO, so as to obtain solutions of a test compound at 9 different concentrations. In addition to wells of test compounds, a positive well (containing all the reagents except the compound) and a negative well (containing all the reagents except the test compound and kinase) were set. Except for the control wells (positive and negative wells), a solution of a test compound (4 μL) was added to each of the reaction wells, and a solution of 2.5% DMSO was added to the control wells. Then the substrate (2 μM, i.e., 2 μL 5×STK-S2 substrate working solution) was added to each of the reaction wells. The 5×ROCK2 kinase working solution (2 μL, containing 1.4 ng ROCK2 kinase) was added to each of the reaction wells except for the negative well, the volume of which was made up with the 1×kinase buffer (2 μL). The 5×ATP working solution (2 μL) was added to each of the reaction wells, and the mixtures were incubated at room temperature for 2 hours. After the kinase reaction was complete, the 4×Streptavidin-XL665 working solution was added to each of the reaction wells, the solutions were mixed, followed by immediate addition of the 4×STK-Ab-Cryptate 2 detection solution (5 μL), and the mixtures were incubated at room temperature for 1 hour. The fluorescence signal was read on ENVISION (Perkinelmer) (excitation wavelength: 320 nm, and emission wavelength: 665 nm and 615 nm). The inhibitory rate in each well was calculated based on the fluorescence intensity value: ER (Emission Ratio)=(fluorescence intensity at 665 nm/fluorescence intensity at 615 nm); inhibitory rate=(ERpositive−ERtest compound) (ERpositive−ERnegative)*100%. Curves were plotted and fitted to obtain the median inhibitory concentration (IC50) of each teat compound with the PRISM 5.0 software.

Sequence of ROCK2 (O75116 1-553): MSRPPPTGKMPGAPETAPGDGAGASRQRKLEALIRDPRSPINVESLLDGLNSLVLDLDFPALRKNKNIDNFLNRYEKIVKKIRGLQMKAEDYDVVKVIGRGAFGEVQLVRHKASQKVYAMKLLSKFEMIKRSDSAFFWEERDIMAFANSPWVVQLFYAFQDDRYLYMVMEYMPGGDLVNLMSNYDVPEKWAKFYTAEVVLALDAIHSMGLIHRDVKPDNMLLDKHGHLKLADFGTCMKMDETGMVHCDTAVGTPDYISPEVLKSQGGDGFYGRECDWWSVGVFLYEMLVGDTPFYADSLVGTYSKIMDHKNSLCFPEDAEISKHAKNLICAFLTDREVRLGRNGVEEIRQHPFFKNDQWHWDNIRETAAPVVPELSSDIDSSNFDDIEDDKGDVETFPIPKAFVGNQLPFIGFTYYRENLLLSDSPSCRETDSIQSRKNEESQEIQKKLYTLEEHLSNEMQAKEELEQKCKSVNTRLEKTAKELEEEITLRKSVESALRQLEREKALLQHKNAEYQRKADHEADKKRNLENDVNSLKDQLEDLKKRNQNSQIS

| Compound | pIC50 |
| --- | --- |
| CC(C)NC(=O)c1ccc2cc(-c3nccc(Nc4ccc5[nH]ncc5c4)n3)[nH]c2c1 [TDI01127, 2-(4-((1H-indazol-5-yl)amino)pyrimidin-2-yl)-N-isopropyl-1H-indole-6-carboxamide] | 7.00 |
| CN1CCN(CC(=O)n2ccc3ccc(-c4nccc(Nc5ccc6[nH]ncc6c5)n4)cc32)CC1 [TDI01230, 1-(6-(4-((1H-indazol-5-yl)amino)pyrimidin-2-yl)-1H-indol-1-yl)-2-(4-methylpiperazin-1-yl)ethan-1-one] | 6.96 |
| O=C(c1cc2ccc(-c3nccc(Nc4ccc(-c5cn[nH]c5)cc4)n3)cc2[nH]1)N1CCC1 [TDI01330, (6-(4-((4-(1H-pyrazol-4-yl)phenyl)amino)pyrimidin-2-yl)-1H-indol-2-yl)(azetidin-1-yl)methanone] | 6.32 |
| CC(C)NC(=O)c1cc2ccc(-c3nc(Nc4ccc5[nH]ncc5c4)c4ccn(CCN(C)C)c4n3)cc2s1 [TDI01122, 6-(4-((1H-indazol-5-yl)amino)-7-(2-(dimethylamino)ethyl)-7H-pyrrolo[2,3-d]pyrimidin-2-yl)-N-isopropylbenzo[b]thiophene-2-carboxamide] | 6.66 |
| O=C(Nc1cn[nH]c1)c1cc2ccc(-c3nccc(Nc4ccc5[nH]ncc5c4)n3)cc2[nH]1 [TDI01199, 6-(4-((1H-indazol-5-yl)amino)pyrimidin-2-yl)-N-(1H-pyrazol-4-yl)-1H-indole-2-carboxamide] | 7.52 |
| O=C(NC1CC1)c1cc2ccc(-c3nccc(Nc4ccc5[nH]ncc5c4)n3)cc2[nH]1 [TDI01151, 6-(4-((1H-indazol-5-yl)amino)pyrimidin-2-yl)-N-cyclopropyl-1H-indole-2-carboxamide] | 7.35 |
| CN1CCC(n2cc(NC(=O)c3cc4ccc(-c5nccc(Nc6ccc7[nH]ncc7c6)n5)cc4[nH]3)cn2)CC1 [TDI01316, 6-(4-((1H-indazol-5-yl)amino)pyrimidin-2-yl)-N-(1-(1-methylpiperidin-4-yl)-1H-pyrazol-4-yl)-1H-indole-2-carboxamide] | 7.06 |
| CC(C)(C)OC(=O)n1cc(NC(=O)c2cc3ccc(-c4nccc(Nc5ccc6[nH]ncc6c5)n4)cc3[nH]2)cn1 [TDI01200, tert-butyl 4-(6-(4-((1H-indazol-5-yl)amino)pyrimidin-2-yl)-1H-indole-2-carboxamido)-1H-pyrazole-1-carboxylate] | 7.64 |
| CCN(CC)C(=O)c1cc2ccc(-c3nccc(Nc4ccc(-c5cn[nH]c5)cc4)n3)cc2[nH]1 [TDI01332, 6-(4-((4-(1H-pyrazol-4-yl)phenyl)amino)pyrimidin-2-yl)-N,N-diethyl-1H-indole-2-carboxamide] | 6.59 |
| CN1CCN(c2ccc(NC(=O)c3cc4ccc(-c5nccc(Nc6ccc7[nH]ncc7c6)n5)cc4[nH]3)cc2)CC1 [TDI01131, 6-(4-((1H-indazol-5-yl)amino)pyrimidin-2-yl)-N-(4-(4-methylpiperazin-1-yl)phenyl)-1H-indole-2-carboxamide] | 7.00 |
| CC(C)NC(=O)c1cc2ccc(-c3nc(Nc4ccc5[nH]ncc5c4)cc(OCCN(C)C)n3)cc2s1 [TDI01121, 6-(4-((1H-indazol-5-yl)amino)-6-(2-(dimethylamino)ethoxy)pyrimidin-2-yl)-N-isopropylbenzo[b]thiophene-2-carboxamide] | 6.33 |
| CC(C)NC(=O)c1cc2ccc(-c3nc(Nc4ccc5[nH]ncc5c4)c4scnc4n3)cc2[nH]1 [TDI01149, 6-(7-((1H-indazol-5-yl)amino)thiazolo[4,5-d]pyrimidin-5-yl)-N-isopropyl-1H-indole-2-carboxamide] | 7.00 |
| CN(C)c1cnccc1NC(=O)c1cc2ccc(-c3nccc(Nc4ccc5[nH]ncc5c4)n3)cc2[nH]1 [TDI01289, 6-(4-((1H-indazol-5-yl)amino)pyrimidin-2-yl)-N-(3-(dimethylamino)pyridin-4-yl)-1H-indole-2-carboxamide] | 7.14 |
| O=C(Nc1cnoc1)c1cc2ccc(-c3nccc(Nc4ccc5[nH]ncc5c4)n3)cc2[nH]1 [TDI01156, 6-(4-((1H-indazol-5-yl)amino)pyrimidin-2-yl)-N-(isoxazol-4-yl)-1H-indole-2-carboxamide] | 7.60 |

More lines, now with the values ahead:

| pIC50 | Compound |
| --- | --- |
| 6.59 | CN(C)C(=O)N1Cc2ccc(-c3nccc(Nc4ccc(-c5cn[nH]c5)cc4)n3)cc2C1 [TDI01366, 5-(4-((4-(1H-pyrazol-4-yl)phenyl)amino)pyrimidin-2-yl)-N,N-dimethylisoindoline-2-carboxamide] |
| 6.47 | CN(C(=O)c1cc2ccc(-c3nccc(Nc4ccc(-c5cn[nH]c5)cc4)n3)cc2[nH]1)C1CCOCC1 [TDI01381] |
| 6.36 | CN1CCN(C(=O)c2cc3ccc(-c4nccc(Nc5ccc(-c6cn[nH]c6)cc5)n4)cc3[nH]2)CC1 [TDI01343, (6-(4-((4-(1H-pyrazol-4-yl)phenyl)amino)pyrimidin-2-yl)-1H-indol-2-yl)(4-methylpiperazin-1-yl)methanone] |
| 7.89 | O=C(c1cc2ccc(-c3nccc(Nc4ccc(-c5cn[nH]c5)cc4)n3)cc2[nH]1)N1CC(C(F)(F)F)C1 [TDI01433] |
| 6.58 | O=C(NC1CCOC1)c1cc2ccc(-c3nc(Nc4ccc(-c5cn[nH]c5)cc4)c4sccc4n3)cc2[nH]1 (centres unmarked) [TDI01423, 6-(4-((4-(1H-pyrazol-4-yl)phenyl)amino)thieno[3,2-d]pyrimidin-2-yl)-N-(tetrahydrofuran-3-yl)-1H-indole-2-carboxamide] |
| 6.83 | CN1CCC(NC(=O)c2cc3ccc(-c4nccc(Nc5ccc(-c6cn[nH]c6)cc5)n4)cc3[nH]2)C1 (centres unmarked) [TDI01339, 6-(4-((4-(1H-pyrazol-4-yl)phenyl)amino)pyrimidin-2-yl)-N-(1-methylpyrrolidin-3-yl)-1H-indole-2-carboxamide] |
| 6.39 | CNC(=O)c1cc2ccc(-c3nc(Nc4ccc(-c5cn[nH]c5)cc4)c4sccc4n3)cc2[nH]1 [TDI01379, 6-(4-((4-(1H-pyrazol-4-yl)phenyl)amino)thieno[3,2-d]pyrimidin-2-yl)-N-methyl-1H-indole-2-carboxamide] |
| 6.94 | CN(CC#N)C(=O)c1cc2ccc(-c3nccc(Nc4ccc(-c5cn[nH]c5)cc4)n3)cc2[nH]1 [TDI01430] |
| 7.59 | O=C(NC1CCN(c2ccncc2Cl)CC1)c1cc2ccc(-c3nccc(Nc4ccc(-c5cn[nH]c5)cc4)n3)cc2[nH]1 [TDI01847B, 6-(4-((4-(1H-pyrazol-4-yl)phenyl)amino)pyrimidin-2-yl)-N-(1-(3-chloropyridin-4-yl)piperidin-4-yl)-1H-indole-2-carboxamide] |
| 6.92 | O=C(c1cc2ccc(-c3nccc(Nc4ccc(-c5cn[nH]c5)cc4)n3)cc2[nH]1)N1CCC2(CCNCC2)CC1 [TDI01425, (6-(4-((4-(1H-pyrazol-4-yl)phenyl)amino)pyrimidin-2-yl)-1H-indol-2-yl)(3,9-diazaspiro[5.5]undecan-3-yl)methanone] |
| 7.80 | N#CC1CN(C(=O)c2cc3ccc(-c4nccc(Nc5ccc(-c6cn[nH]c6)cc5)n4)cc3[nH]2)C1 [TDI01398, 1-(6-(4-((4-(1H-pyrazol-4-yl)phenyl)amino)pyrimidin-2-yl)-1H-indole-2-carbonyl)azetidine-3-carbonitrile] |
| 6.97 | CN(C(=O)c1cc2ccc(-c3nccc(Nc4ccc(-c5cn[nH]c5)cc4)n3)cc2[nH]1)C(CO)CO [TDI01344-2A, 6-(4-((4-(1H-pyrazol-4-yl)phenyl)amino)pyrimidin-2-yl)-N-(1,3-dihydroxypropan-2-yl)-N-methyl-1H-indole-2-carboxamide] |
